For one assay, the target named is RPA70N (Homo sapiens, UniProt P27694). The assay can be described thus: FPA direct binding of FITC-labeled peptides. Particulars: stapled peptides, versus phenylalanine counterparts.
Another assay addresses RPA70C/32D/14. The assay can be described thus: Direct binding FPA assay, selectivity. Conditions: read-out: Kd for RPA70C/32D/14, FITC-labeled stapled peptide.

Positions of bridges follow the written chain, without caps; N, C: chain ends. Non-standard residues stand in square brackets, D forms with d. Residues, ends and D or L forms follow the SMILES beside them. *: point of attachment. FITC = O=C1OC2(c3ccc(O)cc3Oc3cc(O)ccc32)c2ccc(NC(=S)*)cc21; Phe(3,4-Cl2) = N[C@@H](Cc1ccc(Cl)c(Cl)c1)C(=O)O; S5 = C=CCCC[C@](C)(N)C(=O)O; Ahx = NCCCCCC(=O)O

Regarding `CC(C)C[C@H](NC(=O)[C@H](C)NC(=O)[C@H](Cc1ccc(Cl)c(Cl)c1)NC(=O)[C@H](Cc1c[nH]c2ccccc12)NC(=O)[C@]1(C)CCCC=CCCC[C@](C)(NC(=O)[C@H](C)NC(=O)[C@@H](NC(=O)[C@H](Cc2ccccc2)NC(=O)[C@H](CC(N)=O)NC(=O)CCCCCNC(=S)Nc2ccc3c(c2)C(=O)OC32c3ccc(O)cc3Oc3cc(O)ccc32)[C@@H](C)O)C(=O)N[C@@H](CC(=O)O)C(=O)N[C@@H](CC(C)C)C(=O)N[C@@H](CCC(=O)O)C(=O)N1)C(N)=O` [Peptide-38] ({FITC-Ahx}-NFTA[S5]DLE[S5]W[Phe(3,4-Cl2)]AL-NH2; staple 5-9), at RPA70N, the “increase in affinity by dichlorophenylalanine substitution” value came to 31 fold.
For the compound `CC(C)C[C@H](NC(=O)[C@H](C)NC(=O)[C@H](Cc1ccc(Cl)c(Cl)c1)NC(=O)[C@H](Cc1c[nH]c2ccccc12)NC(=O)[C@]1(C)CCCC=CCCC[C@](C)(NC(=O)[C@H](C)NC(=O)[C@@H](NC(=O)[C@H](Cc2ccccc2)NC(=O)[C@H](CC(N)=O)NC(=O)CCCCCNC(=S)Nc2ccc3c(c2)C(=O)OC32c3ccc(O)cc3Oc3cc(O)ccc32)[C@@H](C)O)C(=O)N[C@@H](CC(N)=O)C(=O)N[C@@H](CC(C)C)C(=O)N[C@@H](CCC(=O)O)C(=O)N1)C(N)=O` [Peptide-39] ({FITC-Ahx}-NFTA[S5]NLE[S5]W[Phe(3,4-Cl2)]AL-NH2; staple 5-9), the “increase in affinity by dichlorophenylalanine substitution” value on RPA70N was found to be 175 fold. The Kd at RPA70C/32D/14 turned out to be 2400 nM.

(Values after PMC3969094 (Journal of Medicinal Chemistry, 2014).)
